This passage reports IC50, EC50 and AC50 results from ChEMBL document CHEMBL1201862, “PubChem BioAssay data set” (2004).

The source made the active and inactive calls. A value given as a limit tells only on which side of the number the result lay.

Assay [1] addresses Peroxisome proliferator-activated receptor gamma/Nuclear receptor corepressor 2 (Homo sapiens, UniProt P37231+Q9Y618). The format is functional.
Assay [2] concerns the target Intestinal-type alkaline phosphatase (Homo sapiens, UniProt P09923). The assay is described as follows: activation of human intestinal alkaline phosphatase – biochemical, dose response (AID 488873). The format is functional.
In assay [3] the target is NAD-dependent protein deacylase sirtuin-5, mitochondrial (Homo sapiens, UniProt Q9NXA8). In words: SIRT5 desuccinylase inhibitors, dose response, biochemical, fluorescence imaging, cherry-pick, set 5 (AID 720591).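 Also: desuccinylation of succinyl peptide AMC substrate read as fluorescence after trypsin release; potency of inhibitors that lower fluorescence and may act on trypsin instead.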
Assay [4] deals with T1, Sentrin-specific protease 6 (Homo sapiens, UniProt Q9GZR1).
T1 sequence (Q9GZR1 whole entry): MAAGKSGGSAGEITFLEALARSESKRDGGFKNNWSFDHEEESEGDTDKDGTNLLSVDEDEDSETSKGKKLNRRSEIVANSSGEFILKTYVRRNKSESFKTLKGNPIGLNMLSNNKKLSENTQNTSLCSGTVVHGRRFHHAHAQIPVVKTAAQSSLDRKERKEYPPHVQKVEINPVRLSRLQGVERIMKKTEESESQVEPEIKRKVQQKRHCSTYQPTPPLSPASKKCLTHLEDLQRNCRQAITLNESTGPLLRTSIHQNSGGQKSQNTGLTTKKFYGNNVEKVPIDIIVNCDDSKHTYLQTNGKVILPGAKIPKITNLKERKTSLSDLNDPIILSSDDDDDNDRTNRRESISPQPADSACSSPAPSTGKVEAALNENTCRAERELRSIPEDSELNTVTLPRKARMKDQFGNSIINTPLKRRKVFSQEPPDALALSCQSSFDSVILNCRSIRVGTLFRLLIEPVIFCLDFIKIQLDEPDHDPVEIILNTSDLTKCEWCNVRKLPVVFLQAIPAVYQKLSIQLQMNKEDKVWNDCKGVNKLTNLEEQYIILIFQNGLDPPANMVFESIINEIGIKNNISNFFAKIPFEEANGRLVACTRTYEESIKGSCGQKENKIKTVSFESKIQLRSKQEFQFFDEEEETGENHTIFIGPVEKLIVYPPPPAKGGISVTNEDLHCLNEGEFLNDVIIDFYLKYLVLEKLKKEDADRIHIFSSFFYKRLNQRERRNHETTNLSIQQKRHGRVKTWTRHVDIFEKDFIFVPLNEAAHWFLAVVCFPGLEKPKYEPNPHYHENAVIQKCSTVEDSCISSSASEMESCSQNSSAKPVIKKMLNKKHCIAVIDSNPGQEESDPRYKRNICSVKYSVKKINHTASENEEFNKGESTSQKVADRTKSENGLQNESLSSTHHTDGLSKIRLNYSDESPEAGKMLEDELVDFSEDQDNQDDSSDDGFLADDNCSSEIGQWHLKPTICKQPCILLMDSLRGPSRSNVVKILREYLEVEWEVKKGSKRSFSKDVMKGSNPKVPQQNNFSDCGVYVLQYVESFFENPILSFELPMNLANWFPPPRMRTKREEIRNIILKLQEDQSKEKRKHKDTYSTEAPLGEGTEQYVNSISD
The format is functional.

Chain of NAD-dependent protein deacylase sirtuin-5, mitochondrial (Q9NXA8 whole entry): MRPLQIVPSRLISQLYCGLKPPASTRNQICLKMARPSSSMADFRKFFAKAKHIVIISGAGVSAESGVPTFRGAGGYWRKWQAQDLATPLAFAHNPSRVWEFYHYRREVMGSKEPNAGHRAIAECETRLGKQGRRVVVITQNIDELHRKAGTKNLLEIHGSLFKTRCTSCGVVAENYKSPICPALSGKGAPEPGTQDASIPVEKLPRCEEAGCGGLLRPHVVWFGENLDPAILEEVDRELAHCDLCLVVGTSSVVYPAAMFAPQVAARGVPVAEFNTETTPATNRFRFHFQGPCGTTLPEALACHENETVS
Chain of Intestinal-type alkaline phosphatase (P09923 whole entry): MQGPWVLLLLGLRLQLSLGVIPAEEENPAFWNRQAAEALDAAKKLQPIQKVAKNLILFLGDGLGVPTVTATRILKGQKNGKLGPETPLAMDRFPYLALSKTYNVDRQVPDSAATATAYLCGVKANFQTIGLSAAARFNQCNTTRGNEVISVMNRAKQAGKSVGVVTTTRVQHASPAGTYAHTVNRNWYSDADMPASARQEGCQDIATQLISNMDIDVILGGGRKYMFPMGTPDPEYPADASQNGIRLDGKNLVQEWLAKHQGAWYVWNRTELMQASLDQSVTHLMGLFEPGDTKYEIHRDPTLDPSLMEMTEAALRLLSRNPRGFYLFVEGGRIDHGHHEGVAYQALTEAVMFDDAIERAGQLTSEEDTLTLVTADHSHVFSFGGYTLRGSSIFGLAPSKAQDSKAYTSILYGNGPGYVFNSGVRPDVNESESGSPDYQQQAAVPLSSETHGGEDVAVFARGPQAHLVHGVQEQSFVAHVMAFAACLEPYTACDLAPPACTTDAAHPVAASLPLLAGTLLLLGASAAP
Chain of Peroxisome proliferator-activated receptor gamma/Nuclear receptor corepressor 2 (P37231 whole entry): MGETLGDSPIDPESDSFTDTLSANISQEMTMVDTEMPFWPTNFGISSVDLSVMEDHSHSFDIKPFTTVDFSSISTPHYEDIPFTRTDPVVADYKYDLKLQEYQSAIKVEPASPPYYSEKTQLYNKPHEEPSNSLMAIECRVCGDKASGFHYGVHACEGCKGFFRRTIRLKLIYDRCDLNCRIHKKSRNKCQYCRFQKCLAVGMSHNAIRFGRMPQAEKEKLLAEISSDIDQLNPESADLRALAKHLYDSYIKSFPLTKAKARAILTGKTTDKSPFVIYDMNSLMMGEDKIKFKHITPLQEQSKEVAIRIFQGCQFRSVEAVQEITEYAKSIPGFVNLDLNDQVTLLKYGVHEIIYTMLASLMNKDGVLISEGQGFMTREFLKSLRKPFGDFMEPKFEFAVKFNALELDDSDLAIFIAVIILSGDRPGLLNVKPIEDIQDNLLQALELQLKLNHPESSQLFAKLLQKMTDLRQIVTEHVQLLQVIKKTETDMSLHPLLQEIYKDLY
Chain of Peroxisome proliferator-activated receptor gamma/Nuclear receptor corepressor 2 (Q9Y618 whole entry): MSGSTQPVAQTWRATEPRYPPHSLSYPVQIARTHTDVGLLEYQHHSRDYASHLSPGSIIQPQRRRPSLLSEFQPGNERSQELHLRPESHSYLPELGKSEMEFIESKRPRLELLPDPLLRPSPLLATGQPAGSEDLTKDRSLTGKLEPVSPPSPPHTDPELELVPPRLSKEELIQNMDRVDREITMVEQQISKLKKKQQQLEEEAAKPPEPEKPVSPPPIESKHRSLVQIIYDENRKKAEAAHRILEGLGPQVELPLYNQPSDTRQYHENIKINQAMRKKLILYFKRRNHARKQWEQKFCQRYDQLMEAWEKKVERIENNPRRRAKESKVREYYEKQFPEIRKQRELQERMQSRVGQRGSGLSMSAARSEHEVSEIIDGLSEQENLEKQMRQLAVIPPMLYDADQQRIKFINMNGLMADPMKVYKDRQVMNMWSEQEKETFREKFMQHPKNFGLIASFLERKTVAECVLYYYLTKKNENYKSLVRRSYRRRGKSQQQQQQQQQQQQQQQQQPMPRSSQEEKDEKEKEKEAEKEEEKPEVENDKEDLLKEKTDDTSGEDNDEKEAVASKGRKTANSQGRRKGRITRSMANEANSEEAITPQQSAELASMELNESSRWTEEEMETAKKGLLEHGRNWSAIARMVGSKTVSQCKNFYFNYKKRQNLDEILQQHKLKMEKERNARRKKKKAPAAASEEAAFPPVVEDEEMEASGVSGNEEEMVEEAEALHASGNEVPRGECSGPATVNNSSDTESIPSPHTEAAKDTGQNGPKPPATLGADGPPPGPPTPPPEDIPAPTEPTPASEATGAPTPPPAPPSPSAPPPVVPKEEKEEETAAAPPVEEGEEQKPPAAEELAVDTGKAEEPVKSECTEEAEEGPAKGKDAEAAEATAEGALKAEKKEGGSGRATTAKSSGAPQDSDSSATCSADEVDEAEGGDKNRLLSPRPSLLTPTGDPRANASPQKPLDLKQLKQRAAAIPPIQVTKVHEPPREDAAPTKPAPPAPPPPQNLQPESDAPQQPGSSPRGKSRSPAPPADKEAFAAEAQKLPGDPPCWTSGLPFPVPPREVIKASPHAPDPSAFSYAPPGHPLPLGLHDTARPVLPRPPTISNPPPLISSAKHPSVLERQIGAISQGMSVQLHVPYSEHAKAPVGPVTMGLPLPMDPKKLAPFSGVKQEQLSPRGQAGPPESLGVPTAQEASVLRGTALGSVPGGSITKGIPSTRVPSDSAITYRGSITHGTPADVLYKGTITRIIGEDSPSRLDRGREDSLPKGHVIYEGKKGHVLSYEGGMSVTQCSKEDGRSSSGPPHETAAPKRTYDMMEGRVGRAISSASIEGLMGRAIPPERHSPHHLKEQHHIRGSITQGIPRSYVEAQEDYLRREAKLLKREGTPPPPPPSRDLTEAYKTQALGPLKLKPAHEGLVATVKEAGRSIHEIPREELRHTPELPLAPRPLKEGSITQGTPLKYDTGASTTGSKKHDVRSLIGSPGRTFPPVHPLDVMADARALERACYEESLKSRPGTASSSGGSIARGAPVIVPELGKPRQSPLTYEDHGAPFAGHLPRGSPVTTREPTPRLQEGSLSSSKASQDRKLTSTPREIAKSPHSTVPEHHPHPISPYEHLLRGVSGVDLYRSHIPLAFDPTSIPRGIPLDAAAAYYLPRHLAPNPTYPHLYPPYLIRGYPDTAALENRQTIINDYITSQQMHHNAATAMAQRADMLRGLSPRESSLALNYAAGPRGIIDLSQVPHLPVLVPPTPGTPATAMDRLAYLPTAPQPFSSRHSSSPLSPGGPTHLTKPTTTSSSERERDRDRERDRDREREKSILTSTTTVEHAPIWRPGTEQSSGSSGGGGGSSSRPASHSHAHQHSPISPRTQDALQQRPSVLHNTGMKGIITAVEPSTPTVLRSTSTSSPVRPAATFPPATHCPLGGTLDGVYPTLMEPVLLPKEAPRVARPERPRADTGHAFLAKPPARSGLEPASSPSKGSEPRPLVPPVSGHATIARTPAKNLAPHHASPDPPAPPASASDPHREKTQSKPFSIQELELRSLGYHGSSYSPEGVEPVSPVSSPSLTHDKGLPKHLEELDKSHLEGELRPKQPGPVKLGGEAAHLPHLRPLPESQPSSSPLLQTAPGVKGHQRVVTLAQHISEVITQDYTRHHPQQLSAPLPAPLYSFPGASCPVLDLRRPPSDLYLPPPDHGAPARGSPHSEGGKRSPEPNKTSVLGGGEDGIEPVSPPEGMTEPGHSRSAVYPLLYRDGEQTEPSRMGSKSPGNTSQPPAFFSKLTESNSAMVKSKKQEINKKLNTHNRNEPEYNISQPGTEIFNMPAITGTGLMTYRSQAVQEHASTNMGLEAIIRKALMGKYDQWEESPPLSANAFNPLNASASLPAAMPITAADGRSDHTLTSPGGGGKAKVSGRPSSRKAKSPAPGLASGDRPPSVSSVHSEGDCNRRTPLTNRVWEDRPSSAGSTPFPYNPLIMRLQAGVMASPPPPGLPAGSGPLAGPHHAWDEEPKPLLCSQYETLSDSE

As usually defined, the IC50 is the concentration that gives 50% inhibition. With `COC(=O)c1cc(C)nc2c1C(=O)C(=O)C=C2N1CCOCC1`, the IC50 in assay [1] is recorded as > 39.8 µM (not active).
Usually EC50 stands for the concentration that produces a half-maximal response. Usually AC50 stands for the midpoint of the concentration-response curve, whichever way the signal moves. Regarding `NS(=O)(=O)c1cc(C(=O)NC2CCSc3ccccc32)ccc1Cl` (centres undefined), in assay [2], the EC50 is 49.4 µM (active). Besides, in assay [3], the AC50 was 6.65 µM (active).
Regarding `CCOC(=O)C1=C(C)OC2(O)c3ccccc3C(=O)C12O` (centres undefined), in assay [4], the IC50 is 2.7 µM (active).
